Laboratory results published in patent US20100190813A1, “SPIRO [PIPERIDINE-4- 4' -THIENO [3,2-C] PYRAN] DERIVATIVES AND RELATED COMPOUNDS AS INHIBITORS OF THE SIGMA RECEPTOR FOR THE TREATMENT OF PSYCHOSIS” (priority 2007, published 2010).
Where two headings read alike, the source gives them in different places.

Legend:
σ1-receptor [1] = molecular target: T1, σ1-receptor (Cavia porcellus, UniProt Q60492); assay: Sigma 1 receptor binding (Version B), [3H]-(+)-Pentazocin displacement; parameters: species or system guinea pig
T1 construct: the σ1-receptor preparation was prepared from guinea pig brain; from tissue; host or cells: guinea pig brain membrane homogenate
Method: In brief the σ1-receptor preparation was prepared from guinea pig brain. The brains were homogenized in 5 to 6 times of volume sucrose solution (0.32M) and homogenized. The homogenate was centrifuged at 2900 rpm, 4° C., 10 min). the supernatant was centrifuged again (23500×g, 4° C., 20 min). The pellet was resuspended in Tris-buffer, incubated for 30 min at room temperature and centrifuged f (23500×g, 4° C., 20 min). The pellet was resuspended in cold TRIS-buffer and homogenized. Then the protein content was measured (approx. 1.5 mg/mL) and the homogenate frozen at −80° C. for later use.
The radioligand used was [^3H]-(+)-Pentazocin in TRIS-buffer. In a volume of 200 μL 50 μL TRIS-buffer, 50 μL compound solution of varying concentration, 50 μL radioligand-solution (8 nM; resulting in 2 nM in the assay) and finally 50 μL of receptor preparation (approx. 1.5 mg/mL) were given into a well of a microplate equipped with a filter. The plate was closed and stirred for 2.5 h at 37° C. and 500 rpm. Following that the solvents were removed by a harvester through the filter. After rinsing with H2O the filter was measured in a scintillation counter ([^3H]-protocol).

σ2-receptor = molecular target: T2, σ2-receptor (Rattus norvegicus, UniProt Q5U3Y7); assay: Sigma 2 receptor binding (Version B), [3H]-Ditolylguanidin displacement; conditions: for Ki: [3H]-Ditolylguanidin 3 nM, σ1 sites masked with (+)-Pentazocin 500 nM; for inhibition at 1 µM: read-out: Binding σ2 *[Inhibition at 1 μM]
T2 construct: the σ2-Receptorpreparation was prepared from rat liver; from tissue; host or cells: rat liver membrane homogenate
T2 sequence (Q5U3Y7 1-176): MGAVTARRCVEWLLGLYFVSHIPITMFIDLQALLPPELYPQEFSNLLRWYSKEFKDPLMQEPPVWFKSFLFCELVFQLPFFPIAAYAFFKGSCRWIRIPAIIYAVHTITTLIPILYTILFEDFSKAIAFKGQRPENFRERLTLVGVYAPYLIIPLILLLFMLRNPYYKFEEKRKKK
Method: In brief the σ2-Receptorpreparation was prepared from rat liver. The livers were homogenized in 5 to 6 times of volume sucrose solution (0.32M) and homogenized. The homogenate was centrifuged at 2900 rpm, 4° C., 10 min). the supernatant was centrifuged again (31000×g, 4° C., 20 min). The pellet was resuspended in TRIS-buffer, incubated for 30 min at room temperature while stirring and centrifuged f (31000×g, 4° C., 20 min). The pellet was resuspended in cold TRIS-buffer pH 8 and homogenized. Then the protein content was measured (approx. 2 mg/mL) and the homogenate frozen at −80° C. for later use.
The radioligand used was [^3H]-Ditolylguanidin in TRIS-buffer pH 8. The σ1-receptor binding sites were masked through (+)-Pentazocin-solution in TRIS-Puffer pH 8.
In a volume of 200 μL 50 μL compound solution of varying concentration, 50 μL (+)-Pentazocin-solution ([…]; resulting in 500 nM in the assay), 50 μL radioligand-solution (12 nM; resulting in 3 nM in the assay) and finally 50 μL of receptor preparation (approx. 2 mg/mL) were given into a well of a microplate equipped with a filter. The plate was closed and stirred for 2 h at room temperature and 500 rpm. Following that the solvents were removed by a harvester through the filter. After rinsing with H2O the filter was measured in a scintillation counter ([^3H]-protocol).

σ1-receptor [2] = molecular target: T1, σ1-receptor; assay: Sigma-1 receptor binding (Version A), [3H]-(+)-pentazocine displacement; parameters: species or system guinea pig
[3] = version B, rat liver preparation, read-out: Binding σ2 Ki
[4] = version B, guinea pig brain preparation, [3H]-(+)-Pentazocin 2 nM, read-out: Binding σ1 Ki
[5] = version B, rat liver preparation, compound at 1 μM
[6] = Binding σ2 Ki [nM], version B, rat liver preparation
[7] = version A, guinea pig brain membranes, [3H]-(+)-pentazocine 3.0 nM, read-out: Binding σ1, Ki

T1 sequence (Q60492 whole entry): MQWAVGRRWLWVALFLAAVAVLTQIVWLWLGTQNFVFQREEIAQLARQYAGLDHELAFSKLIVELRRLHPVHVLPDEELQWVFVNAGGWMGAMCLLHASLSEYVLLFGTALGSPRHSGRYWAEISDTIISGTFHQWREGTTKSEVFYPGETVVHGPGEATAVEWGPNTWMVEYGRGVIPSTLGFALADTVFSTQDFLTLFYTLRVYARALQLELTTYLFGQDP

## COC1Cc2sc(CN(C)C)cc2C2(CCN(Cc3ccccc3)CC2)O1 (stereo not drawn) [Example 42, (1-Benzyl-6′-methoxy-6′,7′-dihydrospiro[piperidine-4,4′-thieno[3.2-c]pyrano]-2′-yl)-N,N-dimethylmethanamine]
σ1-receptor [1]
  Ki: 16.8 ± 1.1 nM
σ2-receptor; [3]
  Ki: 898 nM

## CCCCCN1CCC2(CC1)OC(OC)Cc1sccc12 (stereo not drawn) [Example 9, 6′-Methoxy-1-pentyl-6′,7′-dihydrospiro[piperidin-4,4′-thieno[3.2-c]pyran]]
σ1-receptor [1]
  Ki: 1.64 ± 0.53 nM
σ2-receptor; [3]
  Ki: 460 nM
σ1-receptor [2]
  Ki: 2.9 ± 0.5 nM

## O=C1Cc2sccc2C2(CCN(Cc3ccccc3)CC2)O1 [Example 28, 1-Benzylspiro[piperidine-4,4′-thieno[3.2-c]pyrano]-6′(7′H)-one]
σ2-receptor
  inhibition at 1 µM: 0%

## COC1Cc2sccc2C2(CCN(CCC(C)C)CC2)O1 (stereo not drawn) [Example 6, 6′-Methoxy-1-(3-methylbutyl)-6′,7′-dihydrospiro[piperidin-4,4′-thieno[3.2-c]pyran]]
σ1-receptor [1]
  Ki: 0.96 ± 0.53 nM
σ2-receptor; [3]
  Ki: 285 nM
σ1-receptor [2]
  Ki: 1.3 ± 0.5 nM

## COC1Cc2sc(C(=O)c3ccccc3)cc2C2(CCN(Cc3ccccc3)CC2)O1 (stereo not drawn) [Example 47, 1-(1-Benzyl-6′-methoxy-6′,7′-dihydrospiro[piperidine-4,4′-thieno[3.2-c]pyrano]-2-yl)-1-phenylmethanone]
σ2-receptor; [3]
  Ki: 427 ± 163 nM

## COC1Cc2sccc2C2(CCN(Cc3ccccc3)CC2)O1 (stereo not drawn) [Example 3, 1-Benzyl-6′-methoxy-6′,7′-dihydrospiro[piperidin-4,4′-thieno[3.2-c]pyran]]
σ1-receptor [1]; [4]
  Ki: 0.32 ± 0.16 nM
σ2-receptor; [3]
  Ki: 1260 nM
σ1-receptor [2]
  Ki: 2.4 ± 0.3 nM
other
  melting point: 78 °C

## COC(=O)c1cc2c(s1)CC(OC)OC21CCN(Cc2ccccc2)CC1 (stereo not drawn) [Example 45, Methyl-1-benzyl-6′-methoxy-6′,7′-dihydrospiro[piperidine-4,4′-thieno[3,2-c]pyrano]-2-carboxylate]
σ2-receptor; [5]
  inhibition at 1 µM: 45%

## COC1Cc2sccc2C2(CCN(CCc3ccccc3)CC2)O1 (stereo not drawn) [Example 4, 6′-Methoxy-1-(2-phenylethyl)-6′,7′-dihydrospiro[piperidin-4,4′-thieno[3.2-c]pyran]]
σ1-receptor [1]
  Ki: 5.89 ± 5.1 nM
σ2-receptor; [3]
  Ki: 191 nM
other
  melting point: 94 °C

## CC(=O)CC1Cc2sccc2C2(CCN(Cc3ccccc3)CC2)O1 (stereo not drawn) [Example 23, 1-(1-Benzyl-6′,7′-dihydrospiro[piperidine-4,4′-thieno[3.2-c]pyrano]-6′-yl)acetone]
σ2-receptor; [3]
  Ki: 1610 nM

## COC1Cc2sccc2C2(CCN(CC=C(C)C)CC2)O1 (stereo not drawn) [Example 7, 6′-Methoxy-1-(3-methylbut-2-enyl)-6′,7′-dihydrospiro[piperidin-4.4-thieno[3.2-c]pyran]]
σ1-receptor [1]
  Ki: 0.96 ± 0.25 nM
σ2-receptor; [6]
  Ki: 78.1 ± 74 nM

## COC1Cc2sc(Cl)cc2C2(CCN(Cc3ccccc3)CC2)O1 (stereo not drawn) [Example 38, 1-Benzyl-2′-chloro-6′-methoxy-6′,7′-dihydrospiro[piperidine-4,4′-thieno[3.2-c]-pyrano]]
σ2-receptor; [5]
  inhibition at 1 µM: 49%
other
  melting point: 117 °C

## COC1Cc2sccc2C2(CCN(Cc3cccs3)CC2)O1 (stereo not drawn) [Example 15, 6′-Methoxy-1-(thien-2-ylmethyl)-6′,7′-dihydrospiro[piperidin-4,4′-thieno[3.2-c]pyran]]
σ1-receptor [1]; [4]
  Ki: 2.02 ± 0.61 nM
σ2-receptor; [3]
  Ki: 1040 nM

## COC1Cc2sccc2C2(CCN(Cc3ccc(F)cc3)CC2)O1 (stereo not drawn) [Example 13, 1-(4-Flourbenzyl)-6′-Methoxy-6′,7′-dihydrospiro[piperidin-4,4′-thieno[3.2-c]pyran]]
σ1-receptor [1]
  Ki: 3.39 ± 4.54 nM
σ2-receptor; [3]
  Ki: 425 nM
σ1-receptor [2]
  Ki: 2.3 ± 0.4 nM

## COC1Cc2sc(C=NO)cc2C2(CCN(Cc3ccccc3)CC2)O1 (mixture of isomers) [Example 43, (E/Z)-1-Benzyl-6′-methoxy-6′,7′-dihydrospiro[piperidine-4,4′-thieno[3,2-c]pyrano]-2-carbaldehydroxim]
σ2-receptor; [5]
  inhibition at 1 µM: 2%

## COC1Cc2sc(C#N)cc2C2(CCN(Cc3ccccc3)CC2)O1 (stereo not drawn) [Example 44, 1-Benzyl-6′-methoxy-6′,7′-dihydrospiro[piperidine-4,4′-thieno[3,2-c]pyrano]-2-carbonitrile]
σ2-receptor; [5]
  inhibition at 1 µM: 16%

## c1ccc(CN2CCC3(CC2)OCCc2sccc23)cc1 [Example 26a]
σ1-receptor [1]; read-out: Binding σ1 Ki, version B, guinea pig brain preparation, [3H]-(+)-Pentazocin 2 nM
  Ki: 0.31 ± 0.11 nM

## COc1ccc(CN2CCC3(CC2)OC(OC)Cc2sccc23)cc1 (stereo not drawn) [Example 14, 6′-Methoxy-1-(4-methoxybenzyl)-6′,7′-dihydrospiro[piperidin-4,4′-thieno[3.2-c]pyran]]
σ1-receptor [1]
  Ki: 2.24 ± 0.99 nM
σ2-receptor; [3]
  Ki: 2970 nM

## CCCCCCCCN1CCC2(CC1)OC(OC)Cc1sccc12 (stereo not drawn) [Example 10, 6′-Methoxy-1-octyl-6′,7′-dihydrospiro[piperidin-4,4-thieno[3.2-c]pyran]]
σ1-receptor [1]
  Ki: 4.5 ± 2 nM
σ2-receptor; [3]
  Ki: 1200 nM

## COC1Cc2sccc2C2(CCN(CCCCc3ccccc3)CC2)O1 (stereo not drawn) [Example 12, 3′-Methoxy-1-(4-phenylbutyl)-6′,7′-dihydrospiro[piperidin-4,4% thieno[3.2-c]pyran]]
σ1-receptor [1]; [4]
  Ki: 7.67 ± 2.15 nM
σ2-receptor; [6]
  Ki: 99.2 ± 21.9 nM

## c1cc2c(s1)CCOC21CCN(CC2CCCCC2)CC1 [Example 26, 1-(Cyclohexylmethyl)-6′,7′-dihydrospiro[piperidine-4,4′-thieno[3,2-c]pyrano]]
σ1-receptor [1]; [4]
  Ki: 0.66 ± 0.27 nM
σ2-receptor; [6]
  Ki: 3.27 ± 0.53 nM
other
  melting point: 77 °C

## CCCCN1CCC2(CC1)OC(OC)Cc1sccc12 (stereo not drawn) [Example 8, 1-Butyl-6′-methoxy-6′,7′-dihydrospiro[piperidin-4,4′-thieno[3.2-c]pyran]]
σ1-receptor [1]; [4]
  Ki: 4.3 ± 0.44 nM
σ2-receptor; [3]
  Ki: 497 ± 294 nM
σ1-receptor [2]
  Ki: 5.5 ± 1.2 nM

## N#CCC1Cc2sccc2C2(CCN(Cc3ccccc3)CC2)O1 (stereo not drawn) [Example 18, {1-Benzyl-6′,7′-dihyrospiro[piperidin-4,4′-thieno[3,2-c]pyran]-6′-yl}acetonitril]
σ2-receptor; [5]
  inhibition at 1 µM: 6%

## COC1Cc2sccc2C2(CCN(CC3CCCCC3)CC2)O1 (stereo not drawn) [Example 5, 1-(Cyclohexylmethyl)-6′Methoxy-6′,7′-dihydrospiro[piperidin-4,4′-thieno[3.2-c]pyran]]
σ1-receptor [1]; [4]
  Ki: 0.29 ± 0.079 nM
σ1-receptor [2]; [7]
  Ki: 2.2 ± 0.3 nM

## OCCC1Cc2sccc2C2(CCN(Cc3ccccc3)CC2)O1 (stereo not drawn) [Example 27, 2-(1-Benzyl-6′,7′-dihyrospiro[piperidine-4,4′-thieno[3,2-c]pyrano]-6′-yl)ethanol]
σ2-receptor; [5]
  inhibition at 1 µM: 11%

## COC1Cc2sccc2C2(CCNCC2)O1 (stereo not drawn) [Example 2, 6′-Methoxy-6′,7′-dihydrospiro[piperidin-4,4′-thieno[3,2-c]pyran]
σ1-receptor [1]; [4]
  Ki: 602 nM
σ2-receptor; [5]
  inhibition at 1 µM: 17%

## COC1Cc2sccc2C2(CCN(CCCc3ccccc3)CC2)O1 (stereo not drawn) [Example 11]
σ2-receptor; [3]
  Ki: 203 nM

## c1ccc(CN2CCC3(CC2)OCCc2sccc23)cc1 [Example 19, 1-Benzyl-6′,7′-dihydrospiro[piperidin-4,4′-thieno[3,2-c]pyran]]
σ1-receptor [1]
  Ki: 0.31 ± 0.11 nM
σ2-receptor; [6]
  Ki: 9.6 ± 8.7 nM
σ1-receptor [2]; [7]
  Ki: 2.1 ± 0.4 nM

## NC(=O)C1Cc2sccc2C2(CCN(Cc3ccccc3)CC2)O1 (stereo not drawn) [Example 29, 1-Benzyl-6′,7′-dihyrospiro[piperidine-4,4′-thieno[3,2-c]pyrano]-6′-carboxamide]
σ2-receptor; [5]
  inhibition at 1 µM: 63%

## CCOC(=O)C1Cc2sccc2C2(CCN(Cc3ccccc3)CC2)O1 (stereo not drawn) [Example 33, Ethyl-1-benzyl-6′,7′-dihvrospiro[piperidine-4,4′-thieno[3,2-c]pyrano]-6′-carboxylate]
σ2-receptor; [5]
  inhibition at 1 µM: 0%

## COC1Cc2sc(C(OC)OC)cc2C2(CCN(Cc3ccccc3)CC2)O1 (stereo not drawn) [Example 37]
other
  melting point: 71 °C

## N#CCC1Cc2sccc2C2(CCN(Cc3ccccc3)CC2)O1 (stereo not drawn) [Example 23a]
σ2-receptor; version B, rat liver preparation, compound at 1 μM, 1 µM
  Binding σ2 *[Inhibition at 1 μM]: 6%
